From patent publication US20160040251A1, “BIOMARKERS FOR THE IDENTIFICATION OF CHEMOSENSITIVITY” (PHARMACYCLICS, LLC, priority 2013, published 2016)

Experiments:
[1] = system: breast cancer cell lines (BCLs); test: MTS cell viability assay in breast cancer cell lines; assay type: cell-based, human; details: for drug-response profiles of BCLs (high- or low-dose sensitive) versus abexinostat profiles: other HDACi compounds; for drug-response profiles of BCLs (high- or low-dose sensitive) versus abexinostat profiles / IC50: 72 h; for IC50: Homo sapiens, 72 h treatment, MTS
Description: A large series of cell lines (16 BCLs) were exposed to increasing concentrations (150 nM-2.5 μM) of the abexinostat, for 72 hours. These series represent all the molecular diversity observed in breast cancers.
Cell lines. A total of 16 breast cancer cell lines (BCLs) were used for the study. HCC1500, HCC1937, HCC1954, Hs 578T, MCF7, MDA-MB-134, MDA-MB-231, MDA-MB-361, MDA-MB-436, […] were obtained from American type culture collection (http://www.atcc.org/). SUM149 and SUM159 were obtained from Dr S.
Ethier's (Karmanos Cancer Center, Detroit, Mich., USA). S68 was obtained from Dr V. Castros (University de Rennes, France) and Br-Ca-MZ-01 from Dr V. Möbus (University of Ulm, Germany). All BCLs tested were derived from carcinomas. BCLs were grown using the recommended culture conditions (Neve et al, Cancer Cell 2006).
Drugs. BCLs were continuously treated for 72h in adherent conditions with Histone Deacetylase Inhibitors (HDACi): abexinostat, SAHA and valproic acid. For experiments abexinostat was prepared in a 23,1 mM stock solution, SAHA in a 0.5M stock solution, in Dimethyl Sulfoxide (DMSO) and stored at −20° C. Valproic acid was prepared in a 1M stock solution in Phosphate Buffered Saline (PBS) and stored at 4° C. For experiments, cells were treated with respective IC50s. DMSO or PBS were used as vehicle control (C<0.1%).
Cell viability. Inhibitory Concentrations 50 (IC50s) were evaluated using 3-(4,5-dimethylthiazol-2-yl)-5-(3-carboxymethoxyphenyl)-2-(4-sulfophenyl)-2H-tetrazolium (MTS) assay. BCLs were plated in adherent condition in 96-well plates at 5,000 cells per well; except for SUM159 plated at 1,000 cells per well. After 24 h, treatment with serial dilutions of HDACi was started. The effect of treatment on cell viability was estimated after 72 h by addition of 100 μL MTS solution (5 mg/mL in PBS) in each well. Cells were then incubated for 1 h at 37° C. Absorbance was measured at 540 nm in a fluorescence plate reader.

[2] = system: patient-derived xenografts CRCM226X, CRCM392X, CRCM389X; test: Tumor growth of patient-derived xenografts under treatment; assay type: in vivo, NOD/SCID mice; details: abexinostat i.p. 12.5 mg/Kg twice a day 5 of 7 days, docetaxel 10 mg/kg weekly, three weeks
Text: To confirm the impact of abexinostat treatment on the CSC population from breast cancers with low XIST expression, three different patient-derived xenografts (PDXs) with distinct Xist expression level (CRCM226X, Xist^low; CRCM392X, Xist^med; CRCM389X, Xist^high) were utilized.
(§1) Animal models Cells from these PDXs were transplanted orthotopically into fat pads of NOD/SCID mice without cultivation in vitro. Single cancer cells (1,000,000 cells CRCM226X and CRCM389X, 125,000 cells CRCM392X) are injected into fat pads of NOD/SCID mice and tumor growth are monitored. When the tumor size was approximately 150 mm^3, treatment is started with abexinostat (i.p, 12.5 mg/Kg, twice a day, 5 out of 7 days for three weeks) or docetaxel (10 mg/kg weekly for three weeks) or placebo.
(§2) Six mice were injected for each PDX and for each group. After 1, 2 and 3 weeks of treatment, two mice from each group were sacrificed according to ethic statements. Tumors were dissociated and cells were analyzed for the ALDEFLUOR phenotype and tumorsphere formation capacity. Cells from 3-week treated mice were reimplanted into secondary NOD/SCID mice with injection of 1,000 cells for each treated tumor.

[3] = system: ALDEFLUOR-positive CSC population of PDXs CRCM226X, CRCM392X, CRCM389X; test: ALDEFLUOR assay on residual PDX tumors; assay type: in vivo, NOD/SCID mice; details: after three weeks of treatment
Description: as §1, §2
ALDEFLUOR assay The ALDEFLUOR kit (Stem Cell Technologies) was used to isolate the population with high aldehyde dehydrogenase (ALDH) enzymatic activity using an LSR2 cytometer as previously described (Ginestier et al, Cell Stem Cell, 2007). For BCLs cultivated in adherent condition, ALDEFLUOR-positive populations were evaluated after 72-hour treatment with HDACi (IC50s) or vehicle. Primary human xenografts CRCM226X, CRCM389X and CRCM392X were harvested on the 3rd week of treatment with abexinostat, docetaxel or placebo, dissociated and stained for ALDEFLUOR analysis. To eliminate cells of mouse origin from the xenotransplanted tumors, staining with an anti-H2K^d biotin antibody (1/200; BD Biosciences) followed by staining with a secondary antibody labeled with streptavidin e450 (1/200; eBioscience) was used.

[4] = system: patient-derived xenografts CRCM226X, CRCM392X, CRCM389X; test: Reimplantation of cells from treated PDXs into secondary mice (tumorigenicity); assay type: in vivo, NOD/SCID mice
Description: as §2
Tumor growth was compared with that of placebo-treated controls. An inhibition of the CRCM226X (Xist^low) PDX growth after abexinostat and docetaxel treatment was observed. […] After three weeks of treatment, the animals were sacrificed and the proportion of ALDEFLUOR-positive CSCs was measured in each residual tumor (FIG. 6B). All PDX models presented an increase in the ALDEFLUOR-positive population isolated from docetaxel-treated tumors compared to the untreated control. […] Tumorigenicity is directly related to the presence of CSCs and this assay gives an estimate of the proportion of residual tumorigenic CSCs. For each treatment condition (placebo, abexinostat, docetaxel), 1,000 cells isolated from treated-tumors were reimplanted.

[5] = CRCM226X (Xist low), 1,000 cells from 3-week treated tumors reimplanted
[6] = CRCM389X (Xist high), 1,000 cells from 3-week treated tumors reimplanted
[7] = CRCM392X (Xist med), 1,000 cells from 3-week treated tumors reimplanted

Row | IC50 ([1]; nine BCLs sensitive to low-dose) | IC50 ([1]; seven BCLs sensitive to high-dose) | Structure (SMILES) | drug-response profiles of BCLs (high- or low-dose sensitive) versus abexinostat profiles [1] | drug-response profile compared to abexinostat profile ([1]; conventional chemotherapeutic agent, BCLs) | PDX tumor growth versus placebo ([2]; CRCM226X (Xist low)) | PDX tumor growth versus placebo ([2]; CRCM389X (Xist high)) | PDX tumor growth versus placebo ([2]; CRCM392X (Xist med)) | ALDEFLUOR-positive population versus untreated control ([3]; CRCM226X (Xist low)) | ALDEFLUOR-positive population versus untreated control ([3]; CRCM389X (Xist high)) | ALDEFLUOR-positive population versus untreated control ([3]; CRCM392X (Xist med)) | tumor regrowth after reimplantation versus placebo-treated [4, 5] | tumor regrowth after reimplantation versus placebo-treated [4, 6] | tumor regrowth after reimplantation versus placebo-treated [4, 7]
1 | – | – | CCCC(CCC)C(=O)O [Valproic Acid, valproic acid] | confirmed | – | – | – | – | – | – | – | – | – | –
2 | – | – | CC(=O)O[C@@]12CO[C@@H]1C[C@H](O)[C@@]1(C)C(=O)[C@H](O)C3=C(C)[C@@H](OC(=O)[C@H](O)[C@@H](NC(=O)OC(C)(C)C)c4ccccc4)C[C@@](O)([C@@H](OC(=O)c4ccccc4)[C@H]21)C3(C)C [docetaxel] | – | totally distinct | inhibition | no or discrete effect | no or discrete effect | increase | increase | increase | tumor regrowth comparable to placebo-treated tumors | tumor regrowth comparable to placebo-treated tumors | tumor regrowth comparable to placebo-treated tumors
3 | 170 to 460 nM | > 700 nM | CN(C)Cc1c(C(=O)NCCOc2ccc(C(=O)NO)cc2)oc2ccccc12 [abexinostat] | – | – | inhibition | no or discrete effect | no or discrete effect | two-fold decrease | increase | two-fold decrease | incapacity to regenerate a tumor | higher regrowth kinetic | delay in tumor regrowth
4 | – | – | O=C(CCCCCCC(=O)Nc1ccccc1)NO [SAHA, vorinostat] | confirmed | – | – | – | – | – | – | – | – | – | –
